Reference: EP0190900A2, “Cephalosporin compounds, their production, and pharmaceutical compositions containing them” (YAMANOUCHI PHARMACEUTICAL CO. LTD., priority 1985, dated 1986)
Values after ≈ are worked out from the molar mass of the structure shown.

Assays:
[1] = system: K. pneumoniae ATCC 10031; test: Antibacterial activity (minimum effective inhibitory concentration); format: cell-based; conditions: Klebsiella pneumoniae, ATCC10031
Excerpt: (§1) Antibacterial activities (minimum effective inhibitory concentrations) of compounds of formula I (taken from the following Examples) are shown in the following Table.

[2] = system: S. epidermidis IID 866; test: as above; format: cell-based; conditions: Staphylococcus epidermidis, IID866
Excerpt: as §1

[3] = system: P. aeruginosa NCTC 10490; test: as above; format: cell-based; conditions: Pseudomonas aeruginosa, NCTC10490
Excerpt: as §1

[4] = system: S. aureus FDA 209P JC-1; test: as above; format: cell-based; conditions: Staphylococcus aureus, FDA209P
Excerpt: as §1

[5] = system: E. coli D-1; test: as above; format: cell-based; conditions: Escherichia coli, D1
Excerpt: as §1

[6] = Acute toxicity, intravenous injection into mice; format: in vivo
Experimental: Some of the compounds of this invention have low toxicity (acute toxicity).
The compound of Example 4 has, in particular, low toxicity.
200 mg of /the compound of Example 4 was dissolved in 2 ml of distilled water and after adjusting the pH of the solution to about 7 by addition of sodium hydrogen carbonate to form an injection solution, the solution was intravenously injected into mice (body weights: 26-28 g; ICR ? 5W) over a period of 4 minutes at a rate of 1 ml/kg. There were no lethal cases for administration doses below 4.0 g/kg.

| Compound | MIC [1] [µg/mL] | MIC [2] [µg/mL] | MIC [3] [µg/mL] | MIC [4] [µg/mL] | MIC [5] [µg/mL] | administration doses with no lethal cases ([6]; ICR mice (26-28 g), intravenous injection over 4 minutes, aqueous solution at about pH 7) | toxicity (acute toxicity) ([6]; statement in words) |
| --- | --- | --- | --- | --- | --- | --- | --- |
| CO/N=C(\C(=O)N[C@@H]1C(=O)N2C(C(=O)O)=C(CSc3nnnn3C)CS[C@H]12)c1csc(N)n1 [Cefmeno-xime] | ≤ 0.006 | 0.39 (≈ 0.762 µM) | 0.2 (≈ 0.391 µM) | 1.56 (≈ 3.05 µM) | 0.025 (≈ 0.0489 µM) | – | – |
| CO/N=C(\C(=O)N[C@@H]1C(=O)N2C(C(=O)[O-])=C(CSc3cc[n+](CC#N)cc3)CS[C@H]12)c1csc(N)n1 [Example 1, (Z)-7-[α-(2-amino-4-thiazolyl)-α-(methoxyimino)acetamido]-3-(1-cyanomethyl-4-pyridinio)thiomethyl-Δ^3-cephem-4-carboxylate] | 0.013 (≈ 0.0238 µM) | 0.1 (≈ 0.183 µM) | 0.39 (≈ 0.715 µM) | 0.2 (≈ 0.367 µM) | 0.013 (≈ 0.0238 µM) | – | – |
| CO/N=C(\C(=O)N[C@@H]1C(=O)N2C(C(=O)[O-])=C(CSc3cc[n+](CC(C)=O)cc3)CS[C@H]12)c1csc(N)n1 [Example 4, (Z)-7-[α-(2-amino-4-thiazolyl)-α-(methoxyimino)acetamido]-3-[1-acetonyl-4-pyridinio)thiomethyl-Δ^3-cephem-4-carboxylate] | ≤ 0.006 | 0.1 (≈ 0.178 µM) | 0.2 (≈ 0.355 µM) | 0.2 (≈ 0.355 µM) | ≤ 0.006 | below 4.0 g/kg | low toxicity |

Now from value to compound, other results behind:

| MIC [1] [µg/mL] | MIC [2] [µg/mL] | MIC [3] [µg/mL] | MIC [4] [µg/mL] | MIC [5] [µg/mL] | Compound | administration doses with no lethal cases ([6]; ICR mice (26-28 g), intravenous injection over 4 minutes, aqueous solution at about pH 7) | toxicity (acute toxicity) ([6]; statement in words) |
| --- | --- | --- | --- | --- | --- | --- | --- |
| ≤ 0.006 | 0.1 (≈ 0.184 µM) | 0.39 (≈ 0.716 µM) | 0.1 (≈ 0.184 µM) | ≤ 0.006 | C#CC[n+]1ccc(SCC2=C(C(=O)[O-])N3C(=O)[C@@H](NC(=O)/C(=N\OC)c4csc(N)n4)[C@H]3SC2)cc1 [Example 9, (Z)-7-[a-(2-amino-4-thiazolyl)-a-(methoxyimino)acetamido]-3-[1-propargyl-4-pyridinio]thiomethyl-Δ^3-cephem-4-carboxylate] | – | – |
| 0.013 (≈ 0.0219 µM) | 0.1 (≈ 0.168 µM) | 0.39 (≈ 0.656 µM) | 0.2 (≈ 0.336 µM) | 0.025 (≈ 0.042 µM) | CC(=O)C[n+]1ccc(SCC2=C(C(=O)[O-])N3C(=O)C(NC(=O)C(=NOCCF)c4csc(N)n4)C3SC2)cc1 (stereo not drawn) [Example 12, (Z)-7-[α-(2-amino-4-thiazolyl)-α-(2-fluoroethoxyimino)acetamidoa-3-[1-acetonyl-4-pyridinio]thiomethyl-Δ^3-cephem-4-carboxylate] | – | – |
| 0.013 (≈ 0.0222 µM) | 0.1 (≈ 0.17 µM) | 0.39 (≈ 0.665 µM) | 0.2 (≈ 0.341 µM) | 0.013 (≈ 0.0222 µM) | CO/N=C(\C(=O)N[C@@H]1C(=O)N2C(C(=O)[O-])=C(CSc3cc[n+](Cc4c[nH]cn4)cc3)CS[C@H]12)c1csc(N)n1 [Example 15, (Z)-7-[α-(2-amino-4-thiazolyl)-α-(methoxyimino)acetamido]-3-(1-(4-imidazolyl)methyl-4-pyridinio)thiomethyl-Δ^3-cephem-4-carboxylate] | – | – |
| 0.013 (≈ 0.022 µM) | 0.2 (≈ 0.338 µM) | 0.78 (≈ 1.32 µM) | 0.2 (≈ 0.338 µM) | 0.013 (≈ 0.022 µM) | CON=C(C)C[n+]1ccc(SCC2=C(C(=O)[O-])N3C(=O)C(NC(=O)C(=NOC)c4csc(N)n4)C3SC2)cc1 (stereo not drawn) [Example 17, (Z)-7-[α-(2-amino-4-thiazolyl)-α-(methoxyimino)acetamido]-3-(1-(2-methoxyimino-propyl)-4-pyridinio)thiomethyl-Δ^3-cephem-4-carboxylate] | – | – |
| ≤ 0.006 | 0.1 (≈ 0.169 µM) | 0.39 (≈ 0.66 µM) | 0.2 (≈ 0.339 µM) | ≤ 0.006 | CCCC(=O)C[n+]1ccc(SCC2=C(C(=O)[O-])N3C(=O)C(NC(=O)C(=NOC)c4csc(N)n4)C3SC2)cc1 (stereo not drawn) [Example 20, (Z)-7-[α-(2-Amino-4-thiazolyl)-α-(methoxyimino)acetamido]-3-[(1-(2-oxopentyl)-4-pyridinio]thiomethyl-Δ^3-cephem-4-carboxylate] | – | – |
